Here are results for two molecules from publication PMC12814364 (Journal of the American Chemical Society, 2025).

The structures appear in SMILES notation. “Also recorded” adds a separate entry of the source. Read-outs that look alike come from different tables or passages of the source.

Experiment [1] concerns the target T1, HBHA110–199 (Mycobacterium tuberculosis, UniProt P9WIP9). Particulars: cited from earlier work.
Experiment [2] addresses T1, HBHA110–199. The experiment in a line: ITC binding of HS hexadecasaccharides with HBHA110–199.
For the next experiment, the target named is T2, full-length HBHA (Mycobacterium tuberculosis, UniProt P9WIP9).
T2 sequence (P9WIP9 1-199): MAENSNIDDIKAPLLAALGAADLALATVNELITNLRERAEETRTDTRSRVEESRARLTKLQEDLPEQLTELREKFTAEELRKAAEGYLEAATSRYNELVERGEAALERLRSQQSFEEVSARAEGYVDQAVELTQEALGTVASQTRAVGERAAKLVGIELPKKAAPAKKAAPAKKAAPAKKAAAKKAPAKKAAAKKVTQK
Put plainly: Far-UV circular dichroism of full-length HBHA with added sugar. Particulars: varying equivalents added; negative control.

For `O=C(O)[C@@H]1O[C@@H](O[C@H]2[C@H](O)[C@@H](NS(=O)(=O)O)[C@@H](O[C@H]3[C@H](O)[C@@H](OS(=O)(=O)O)[C@H]4OC[C@@H]3O4)O[C@@H]2COS(=O)(=O)O)[C@H](OS(=O)(=O)O)[C@@H](O)[C@@H]1O[C@H]1O[C@H](COS(=O)(=O)O)[C@@H](O[C@@H]2O[C@@H](C(=O)O)[C@@H](O[C@H]3O[C@H](COS(=O)(=O)O)[C@@H](O[C@@H]4O[C@@H](C(=O)O)[C@@H](O[C@H]5O[C@H](COS(=O)(=O)O)[C@@H](O)[C@H](O)[C@H]5NS(=O)(=O)O)[C@H](O)[C@H]4OS(=O)(=O)O)[C@H](O)[C@H]3NS(=O)(=O)O)[C@H](O)[C@H]2OS(=O)(=O)O)[C@H](O)[C@H]1NS(=O)(=O)O` [HS8], the Kd was 24.5 µM on HBHA110–199 [1] (Average of Repeat I P(KKAA), residue 160-164, read-out: Dissociation constant from NMR cross-peak movement, average); 11.8 µM on HBHA110–199 [1] (Average of Repeat II P(AKKAA), residue 165-170, read-out: Dissociation constant from NMR cross-peak movement, average); 6.9 µM on HBHA110–199 [1] (Average of Repeat III P(AKKAA), residue 171-176, read-out: Dissociation constant from NMR cross-peak movement, average); 6.2 µM on HBHA110–199 [1] (Average of Repeat IV P(AKKAAAKKA), residue 177-186, read-out: Dissociation constant from NMR cross-peak movement, average); 4.6 µM on HBHA110–199 [1] (Average of Repeat V P(AKKAAAKKV), residue 187-196, read-out: Dissociation constant from NMR cross-peak movement, average); 20.7 µM at HBHA110–199 [1] (residue A163, Repeat I, read-out: Dissociation constant from NMR cross-peak movement). Also, the Kd at HBHA110–199 [1] (residue A164, Repeat I, read-out: Dissociation constant from NMR cross-peak movement) was 22.2 µM; on HBHA110–199 [1] (residue A166, Repeat II, read-out: Dissociation constant from NMR cross-peak movement), 14.4 µM; on HBHA110–199 [1] (residue A169, Repeat II, read-out: Dissociation constant from NMR cross-peak movement), 14.6 µM; on HBHA110–199 [1] (residue A170, Repeat II, read-out: Dissociation constant from NMR cross-peak movement), 8.3 µM; on HBHA110–199 [1] (residue A172, Repeat III, read-out: Dissociation constant from NMR cross-peak movement), 10.3 µM; at HBHA110–199 [1] (residue A175, Repeat III, read-out: Dissociation constant from NMR cross-peak movement), 8.5 µM. Further, the Kd on HBHA110–199 [1] (residue A176, Repeat III, read-out: Dissociation constant from NMR cross-peak movement) is 5 µM; at HBHA110–199 [1] (residue A178, Repeat IV, read-out: Dissociation constant from NMR cross-peak movement) it was 4.8 µM; on HBHA110–199 [1] (residue A181, Repeat IV, read-out: Dissociation constant from NMR cross-peak movement) it was 4.8 µM; on HBHA110–199 [1] (residue A182, Repeat IV, read-out: Dissociation constant from NMR cross-peak movement), 4.6 µM; on HBHA110–199 [1] (residue A183, Repeat IV, read-out: Dissociation constant from NMR cross-peak movement) it was 4.6 µM; at HBHA110–199 [1] (residue A186, Repeat IV, read-out: Dissociation constant from NMR cross-peak movement), 3.1 µM. Moreover, the Kd at HBHA110–199 [1] (residue A188, Repeat V, read-out: Dissociation constant from NMR cross-peak movement) was 4.8 µM; on HBHA110–199 [1] (residue A191, Repeat V, read-out: Dissociation constant from NMR cross-peak movement) it was 5.3 µM; on HBHA110–199 [1] (residue A192, Repeat V, read-out: Dissociation constant from NMR cross-peak movement) it was 4.6 µM; on HBHA110–199 [1] (residue A193, Repeat V, read-out: Dissociation constant from NMR cross-peak movement), 4.8 µM; on HBHA110–199 [1] (residue K161, Repeat I, read-out: Dissociation constant from NMR cross-peak movement), 9.8 µM; on HBHA110–199 [1] (residue K162, Repeat I, read-out: Dissociation constant from NMR cross-peak movement), 45.3 µM. In addition, the Kd was 4.2 µM on HBHA110–199 [1] (residue K167, Repeat II, read-out: Dissociation constant from NMR cross-peak movement); 17.2 µM on HBHA110–199 [1] (residue K168, Repeat II, read-out: Dissociation constant from NMR cross-peak movement); 4.2 µM on HBHA110–199 [1] (residue K173, Repeat III, read-out: Dissociation constant from NMR cross-peak movement); 6.6 µM at HBHA110–199 [1] (residue K174, Repeat III, read-out: Dissociation constant from NMR cross-peak movement); 6.6 µM at HBHA110–199 [1] (residue K179, Repeat IV, read-out: Dissociation constant from NMR cross-peak movement); 4.1 µM on HBHA110–199 [1] (residue K180, Repeat IV, read-out: Dissociation constant from NMR cross-peak movement). The Kd at HBHA110–199 [1] (residue K184, Repeat IV, read-out: Dissociation constant from NMR cross-peak movement) is 18.3 µM; on HBHA110–199 [1] (residue K185, Repeat IV, read-out: Dissociation constant from NMR cross-peak movement), 4.5 µM; on HBHA110–199 [1] (residue K189, Repeat V, read-out: Dissociation constant from NMR cross-peak movement) it was 5.9 µM; on HBHA110–199 [1] (residue K190, Repeat V, read-out: Dissociation constant from NMR cross-peak movement), 4.1 µM; at HBHA110–199 [1] (residue K194, Repeat V, read-out: Dissociation constant from NMR cross-peak movement), 4.9 µM; on HBHA110–199 [1] (residue K195, Repeat V, read-out: Dissociation constant from NMR cross-peak movement), 4.6 µM. In addition, the Kd at HBHA110–199 [1] (residue V196, Repeat V, read-out: Dissociation constant from NMR cross-peak movement) is 2.7 µM; on HBHA110–199 [2] (Tris buffer pH 7.6, 25 °C, two trials, average ± standard deviation, read-out: dissociation constant, KD), 2400 ± 300 nM. Further, the “average Δδresidue (weighted chemical shift deviation) of HBHA110–199” value on HBHA110–199 [1] (protein-to-sugar molar ratio 1:2, all residues, reported previously, ref Huang et al., 2017) is recorded as 0.019 ppm. Further, at HBHA110–199 [2] (25 °C, Tris buffer pH 7.6), the “n (sugar-to-protein binding ratio)” value was determined as 0.56 ± 0.01. At HBHA110–199 [2] (25 °C, Tris buffer pH 7.6), the ΔG entry is “–7.68 ± 0.08 kcal/mol”. This molecule also registered a ΔH at HBHA110–199 [2] (25 °C, Tris buffer pH 7.6) of 5.38 ± 0.05 kcal/mol. For the same molecule, the “–TΔS” value at HBHA110–199 [2] (25 °C, Tris buffer pH 7.6) is on record as “–13.05 ± 0.07 kcal/mol”.
Take `CC(=O)N[C@H]1[C@@H](O[C@H]2[C@H](O)[C@@H](O)[C@H]3OC[C@@H]2O3)O[C@H](CO)[C@@H](O[C@@H]2O[C@@H](C(=O)O)[C@@H](O[C@H]3O[C@H](CO)[C@@H](O[C@@H]4O[C@@H](C(=O)O)[C@@H](O[C@H]5O[C@H](CO)[C@@H](O[C@@H]6O[C@@H](C(=O)O)[C@@H](O[C@H]7O[C@H](CO)[C@@H](O[C@@H]8O[C@@H](C(=O)O)[C@@H](O[C@H]9O[C@H](CO)[C@@H](O[C@@H]%10O[C@@H](C(=O)O)[C@@H](O[C@H]%11O[C@H](CO)[C@@H](O[C@@H]%12O[C@@H](C(=O)O)[C@@H](O[C@H]%13O[C@H](CO)[C@@H](O[C@@H]%14O[C@@H](C(=O)O)[C@@H](O[C@H]%15O[C@H](CO)[C@@H](O)[C@H](O)[C@H]%15NC(C)=O)[C@H](O)[C@H]%14O)[C@H](O)[C@H]%13NC(C)=O)[C@H](O)[C@H]%12O)[C@H](O)[C@H]%11NC(C)=O)[C@H](O)[C@H]%10O)[C@H](O)[C@H]9NC(C)=O)[C@H](O)[C@H]8O)[C@H](O)[C@H]7NC(C)=O)[C@H](O)[C@H]6O)[C@H](O)[C@H]5NC(C)=O)[C@H](O)[C@H]4O)[C@H](O)[C@H]3NC(C)=O)[C@H](O)[C@H]2O)[C@@H]1O` [compound 20]: the “conformational change of full-length HBHA (CD)” value at full-length HBHA is “did not induce any significant conformational change”. For the same molecule, the “dissociation constant, KD” value at HBHA110–199 [2] (Tris buffer pH 7.6, 25 °C, two trials, average ± standard deviation) is listed as “no detectable binding; also recorded: no binding detected”.
